Measurements from patent publication US20240398805A1, “QUINAZOLINE DERIVED COMPOUNDS AS EGFR INHIBITORS AND THEIR USES THEREOF” (ACCUTAR BIOTECHNOLOGY INC., priority 2021, published 2024).

Columns and labels:
Format in all cases: cell-based
[1] = test system: HCC827-YVMA cells (human ERBB2 exon20 insertion mutant A775_G776ins YVMA); test: Cell growth inhibition (CellTiter-Glo, 3 days) in HCC827-YVMA; conditions: 72 h, 3 days after administration
Procedure, shortened: (§1)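 Growth inhibition used a CellTiter-Glo luminescence read-out after 3 days of compound exposure at various concentrations. Cells were plated the day before at 5000/well in RPMI plus 10% FBS. The lines are HCC827 transduced by lentivirus with codon-optimized EGFR ASV or ERBB2 YVMA exon 20 insertions.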

[2] = test system: HCC827-SVD cells (human EGFR exon 20 insertion mutant D770_N771 insSVD); test: Cell growth inhibition (CellTiter-Glo, 3 days) in HCC827-SVD; conditions: 72 h, 3 days after administration
Procedure, shortened: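 HCC827 cells carrying lentiviral codon-optimized EGFR D770_N771 insSVD, with endogenous EGFR knocked out by CRISPR (single clone), seeded at 5000 cells/well in RPMI with 10% FBS. Viability read by CellTiter-Glo luminescence.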

[3] = test system: HCC827-ASV cells (human EGFR exon 20 insertion mutant A769_D770insASV); test: Cell growth inhibition (CellTiter-Glo, 3 days) in HCC827-ASV; conditions: 72 h, 3 days after administration
Procedure, shortened: as §1

HCC827 cells = test: Cell growth inhibition (CellTiter-Glo, 3 days) in HCC827; conditions: Homo sapiens, 72 h, 3 days after administration
Procedure, shortened: (§2)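 HCC827 cells in RPMI/10% FBS and A431 cells in DMEM/10% FBS were seeded at 5000 cells/well and left overnight. Compound was then added over a concentration range for 3 days of incubation, and viability was read by CellTiter-Glo luminescence.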

A431 cells = test: Cell growth inhibition (CellTiter-Glo, 3 days) in A431; conditions: Homo sapiens, A-431, 72 h, 3 days after administration
Procedure, shortened: as §2

Row | SMILES | GI50 [1] | GI50 [2] | GI50 [3] | GI50 (HCC827 cells) | GI50 (A431 cells)
1 | C=CC(=O)N1CCC(Nc2cc3c(Nc4ccc(Oc5cc(N6C[C@@H](C)O[C@@H](C)C6)ncc5Cl)cc4F)ncnc3cc2OC)CC1 [Example 108, 1-(4-((4-((4-((5-chloro-2-((2R,6S)-2,6-dimethylmorpholino)pyridin-4-yl)oxy)-2-fluorophenyl)amino)-7-methoxyquinazolin-6-yl)amino)piperidin-1-yl)prop-2-en-1-one] | 100 to 300 nM | 300 to 600 nM | 100 to 300 nM | 300 to 600 nM | ≥ 1000 nM
2 | C=CC(=O)N1CCC(Nc2cc3c(Nc4ccc(Oc5ccnc(-c6csc(C)n6)c5)cc4F)ncnc3cc2OC)CC1 [Compound 97, 1-(4-((4-((2-fluoro-4-((2-(2-methylthiazol-4-yl)pyridin-4-yl)oxy)phenyl)amino)-7-methoxyquinazolin-6-yl)amino)piperidin-1-yl) prop-2-en-1-one] | < 30 nM | < 30 nM | < 30 nM | 30 to 60 nM | 300 to 600 nM
3 | C=CC(=O)N1CCC(Nc2cc3c(Nc4ccc(Oc5ccnc(N6CCC(OC)CC6)c5)cc4F)ncnc3cc2OC)CC1 [Example 104, 1-(4-((4-((2-fluoro-4-((2-(4-methoxypiperidin-1-yl)pyridin-4-yl)oxy)phenyl)amino)-7-methoxyquinazolin-6-yl)amino)piperidin-1-yl)prop-2-en-1-one] | < 30 nM | < 30 nM | < 30 nM | 100 to 300 nM | ≥ 1000 nM
4 | C=CC(=O)N1CCC(Nc2cc3c(Nc4ccc(Oc5ccn(-c6cc(OC)ncn6)n5)cc4F)ncnc3cc2OC)CC1 [Example 30, 1-(4-((4-((2-fluoro-4-((1-(6-methoxypyrimidin-4-yl)-1H-pyrazol-3-yl)oxy)phenyl)amino)-7-methoxyquinazolin-6-yl)amino)piperidin-1-yl)prop-2-en-1-one] | < 30 nM | 30 to 60 nM | < 30 nM | 100 to 300 nM | 300 to 600 nM
5 | C=CC(=O)N1CCC(Nc2cc3c(Nc4ccc(Oc5ccnc(-n6cc(C)cn6)n5)cc4F)ncnc3cc2OC)CC1 [Example 39, 1-(4-((4-((2-fluoro-4-((2-(4-methyl-1H-pyrazol-1-yl)pyrimidin-4-yl)oxy)phenyl)amino)-7-methoxyquinazolin-6-yl)amino)piperidin-1-yl)prop-2-en-1-one] | < 30 nM | < 30 nM | < 30 nM | 60 to 100 nM | 300 to 600 nM
6 | C=CC(=O)N1CCC(Nc2cc3c(Nc4ccc(Oc5ccnc(N6C[C@H](OC)[C@H](OC)C6)n5)cc4F)ncnc3cc2OC)CC1 [Compound 260, 1-(4-((4-((4-((2-((3R,4S)-3,4-dimethoxypyrrolidin-1-yl)pyrimidin-4-yl)oxy)-2-fluorophenyl)amino)-7-methoxyquinazolin-6-yl)amino)piperidin-1-yl)prop-2-en-1-one] | < 30 nM | < 30 nM | < 30 nM | 100 to 300 nM | ≥ 1000 nM
7 | C=CC(=O)N1CCC(Nc2cc3c(Nc4ccc(Oc5ccn(-c6cccc(OC)n6)n5)cc4F)ncnc3cc2OC)CC1 [Example 58, 1-(4-((4-((2-fluoro-4-((1-(6-methoxypyridin-2-yl)-1H-pyrazol-3-yl)oxy)phenyl)amino)-7-methoxyquinazolin-6-yl)amino)piperidin-1-yl)prop-2-en-1-one] | 60 to 100 nM | 60 to 100 nM | 60 to 100 nM | 60 to 100 nM | 300 to 600 nM
8 | C=CC(=O)N1CCC(Nc2cc3c(Nc4ccc(Oc5ccnc(N6CC7CN(C)CC7C6)c5)cc4F)ncnc3cc2OC)CC1 (stereo not drawn) [Example 240, 1-(4-((4-((2-fluoro-4-((2-(5-methylhexahydropyrrolo[3,4-c]pyrrol-2(1H)-yl)pyridin-4-yl)oxy)phenyl)amino)-7-methoxyquinazolin-6-yl)amino)piperidin-1-yl)prop-2-en-1-one] | 300 to 600 nM | 300 to 600 nM | 300 to 600 nM | 600 to 1000 nM | ≥ 1000 nM
9 | C=CC(=O)N1CCC(Nc2cc3c(Nc4ccc(Oc5ccnc(N6C7CCC6COC7)c5)cc4F)ncnc3cc2OC)CC1 [Example 136, 1-(4-((4-((4-((2-(3-oxa-8-azabicyclo[3.2.1]octan-8-yl)pyridin-4-yl)oxy)-2-fluorophenyl)amino)-7-methoxyquinazolin-6-yl)amino)piperidin-1-yl)prop-2-en-1-one] | 30 to 60 nM | 30 to 60 nM | 30 to 60 nM | 300 to 600 nM | 600 to 1000 nM
10 | C=CC(=O)N1CCC(Nc2cc3c(Nc4ccc(Oc5ccnc(N6CCC[C@@H](OC)C6)c5)c(Cl)c4)ncnc3cc2OC)CC1 [Example 227, (R)-1-(4-((4-((3-chloro-4-((2-(3-methoxypiperidin-1-yl)pyridin-4-yl)oxy)phenyl)amino)-7-methoxyquinazolin-6-yl)amino)piperidin-1-yl)prop-2-en-1-one] | 60 to 100 nM | 30 to 60 nM | 60 to 100 nM | 100 to 300 nM | 300 to 600 nM
11 | C=CC(=O)N1CCC(Nc2cc3c(Nc4ccc(Oc5ccn(-c6ccc(C)nc6)n5)cc4F)ncnc3cc2OCC)CC1 [Example 18, 1-(4-((7-ethoxy-4-((2-fluoro-4-((1-(6-methylpyridin-3-yl)-1H-pyrazol-3-yl)oxy)phenyl)amino)quinazolin-6-yl)amino)piperidin-1-yl)prop-2-en-1-one] | < 30 nM | < 30 nM | < 30 nM | < 30 nM | 100 to 300 nM
12 | C=CC(=O)N1CCC(Nc2cc3c(Nc4ccc(Oc5ccn(-c6cnc(C)c(F)c6)n5)c(F)c4)ncnc3cc2OC)CC1 [Example 86, 1-(4-((4-((3-fluoro-4-((1-(5-fluoro-6-methylpyridin-3-yl)-1H-pyrazol-3-yl)oxy)phenyl)amino)-7-methoxyquinazolin-6-yl)amino)piperidin-1-yl)prop-2-en-1-one] | 30 to 60 nM | 30 to 60 nM | 60 to 100 nM | 30 to 60 nM | 60 to 100 nM
13 | C=CC(=O)N1CCC(Nc2cc3c(Nc4ccc(Oc5ccn(-c6cnc7ccccc7c6)n5)cc4F)ncnc3cc2OC)CC1 [Example 91, 1-(4-((4-((2-fluoro-4-((1-(quinolin-3-yl)-1H-pyrazol-3-yl)oxy)phenyl)amino)-7-methoxyquinazolin-6-yl)amino)piperidin-1-yl)prop-2-en-1-one] | 100 to 300 nM | 30 to 60 nM | 60 to 100 nM | 100 to 300 nM | 100 to 300 nM
14 | C=CC(=O)N1CCC(Nc2cc3c(Nc4ccc(Oc5ccn(-c6ccc(OC)nn6)n5)cc4F)ncnc3cc2OC)CC1 [Example 50, 1-(4-((4-((2-fluoro-4-((1-(6-methoxypyridazin-3-yl)-1H-pyrazol-3-yl)oxy)phenyl)amino)-7-methoxyquinazolin-6-yl)amino)piperidin-1-yl)prop-2-en-1-one] | 30 to 60 nM | 30 to 60 nM | 30 to 60 nM | 60 to 100 nM | 100 to 300 nM
15 | C=CC(=O)N1CCC(Nc2cc3c(Nc4ccc(Oc5ccnc(N6CCC[C@@H](N)C6)c5)cc4F)ncnc3cc2OC)CC1 [Example 217, (R)-1-(4-((4-((4-((2-(3-aminopiperidin-1-yl)pyridin-4-yl)oxy)-2-fluorophenyl)amino)-7-methoxyquinazolin-6-yl)amino)piperidin-1-yl)prop-2-en-1-one] | 600 to 1000 nM | 300 to 600 nM | 600 to 1000 nM | ≥ 1000 nM | ≥ 1000 nM
